The target in this assay is Transient receptor potential cation channel subfamily V member 1 (Homo sapiens, UniProt Q8NER1). The assay can be described thus: FLIPR Assay. The method, then: All compounds were tested over a 12-point one-third-log concentration range. Compound stocks, 10 mM, were prepared in DMSO, and diluted serially across a 384-well plate using a Bravo BenchCel workstation (Agilent Technologies, Santa Clara, Calif.).

Each structure is given as a SMILES string.

Chain of Transient receptor potential cation channel subfamily V member 1 (Q8NER1 whole entry): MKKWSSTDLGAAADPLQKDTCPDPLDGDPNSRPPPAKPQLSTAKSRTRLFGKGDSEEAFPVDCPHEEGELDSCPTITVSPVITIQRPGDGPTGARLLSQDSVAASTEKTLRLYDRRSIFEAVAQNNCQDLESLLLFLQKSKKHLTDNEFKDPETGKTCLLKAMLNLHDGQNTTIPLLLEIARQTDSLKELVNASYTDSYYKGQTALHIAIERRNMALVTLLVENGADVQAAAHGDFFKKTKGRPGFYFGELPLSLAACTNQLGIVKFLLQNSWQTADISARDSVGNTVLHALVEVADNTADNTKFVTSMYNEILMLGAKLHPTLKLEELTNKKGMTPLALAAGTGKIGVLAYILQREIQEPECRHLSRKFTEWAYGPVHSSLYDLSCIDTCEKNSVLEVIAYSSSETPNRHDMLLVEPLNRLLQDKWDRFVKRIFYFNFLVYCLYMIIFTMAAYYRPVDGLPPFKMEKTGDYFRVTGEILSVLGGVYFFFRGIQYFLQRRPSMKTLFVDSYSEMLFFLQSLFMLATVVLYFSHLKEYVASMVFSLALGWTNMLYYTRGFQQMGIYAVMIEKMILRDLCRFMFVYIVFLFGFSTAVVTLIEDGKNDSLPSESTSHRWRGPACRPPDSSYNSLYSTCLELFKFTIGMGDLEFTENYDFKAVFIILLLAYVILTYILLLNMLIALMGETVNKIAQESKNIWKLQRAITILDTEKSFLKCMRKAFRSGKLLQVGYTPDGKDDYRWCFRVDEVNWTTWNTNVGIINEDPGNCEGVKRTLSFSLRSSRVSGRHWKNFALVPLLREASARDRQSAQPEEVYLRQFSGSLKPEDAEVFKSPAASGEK

`Cc1cccnc1N1CC=C(C(=O)Nc2ccc(C(=O)NC(F)(F)F)cc2)CC1` [US8802711, L] displayed an IC50 of 100 nM.

The term IC50 denotes the midpoint of a concentration-inhibition curve.

The values are drawn from BindingDB's records for patent US8802711 (Abbvie, 2014).
